The values that follow come from ChEMBL document CHEMBL1148510, “Synthesis and photocytotoxic activity of new chlorin-polyamine conjugates” (Bioorg Med Chem Lett, 2006).

Active and inactive are the calls of the source. No cut-off for these calls is given here.

Data set [1] can be described thus: Partition coefficient, Log P of the compound. The class given is physicochemical. The conditions noted are these: octanol/water.
In data set [2] the test system is K562. Kind of data set: Cytotoxicity against human K562 cells at 2 uM after 24 hrs in dark. The class given is functional, cell-based.
The test system of data set [3] is K562. Kind of data set: Photocytotoxicity against human K562 cells at 2 uM. The class given is functional, cell-based.

The logP is a log measure of how a compound divides between an organic and an aqueous phase. As to `CN(CCCCNCCCCNC(=O)c1ccc(-c2c3nc(c(-c4ccc(C(=O)NCCCCNCCCCN(C)CCCNCCCN)cc4)c4ccc([nH]4)c(-c4ccc(C(=O)NCCCCNCCCN(C)CCCCNCCCN)cc4)c4ccc([nH]4)c(-c4ccc(C(=O)NCCCCNCCCN(C)CCCCNCCCN)cc4)c4nc2CC4)C=C3)cc1)CCCNCCCN`, the logP in data set [1] was -1.98.

For `C=Cc1c(C)c2cc3nc(c(CC(=O)NCCCCNCCCN(C)CCCCN)c4nc(cc5[nH]c(cc1[nH]2)c(C)c5CC)C(C)=C4C(=O)NCCCCNCCCN(C)CCCCN)[C@@H](CCC(=O)NCCNCCCN(C)CCCCN)[C@@H]3C`, the result in the data set with K562 [2] and in the data set with K562 [3] was Active. In data set [1], this molecule had a logP of -0.45.

As for `CN(CCCN)CCCCNCCCCNC(=O)c1ccc(-c2c3nc(c(-c4ccc(C(=O)NCCCCNCCCCN(C)CCCN)cc4)c4ccc([nH]4)c(-c4ccc(C(=O)NCCCCNCCCN(C)CCCCN)cc4)c4ccc([nH]4)c(-c4ccc(C(=O)NCCCCNCCCN(C)CCCCN)cc4)c4nc2CC4)C=C3)cc1`, the logP in data set [1] is -1.87.

In the case of `C=Cc1c(C)c2cc3nc(c(CC(=O)NCCCCNCCCN(C)CCCCNCCCN)c4nc(cc5[nH]c(cc1[nH]2)c(C)c5CC)C(C)=C4C(=O)NCCCCNCCCN(C)CCCCNCCCN)[C@@H](CCC(=O)NCCNCCCN(C)CCCCNCCCN)[C@@H]3C`, the result in the data set with K562 [2] and in the data set on K562 [3] was Active. Further, in data set [1], the logP was -0.83.
